Key:
Assay type in all cases: cell-based
[1] = biological target: GPR55 mutant R253A (Gα13) (Homo sapiens, UniProt Q9Y2T6, R253A); assay: BRET² G protein dissociation assay, GPR55 R253A with Gα13
Excerpt: (§1) To validate the functionality of the GPR55 cryo-EM construct, we conducted bioluminescence resonance energy transfer 2 (BRET²)-based G protein dissociation assays[46],[47] using an engineered heterotrimeric G13 protein. The N-terminal GFP fusion of the receptor was additionally modified with a G67A mutation to disrupt fluorescence properties. We employed human embryonic kidney (HEK) cells overexpressing wt or mutant GPR55 together with Gβ3, Gγ9-GFP, and Gα13 tagged with Renilla luciferase 8 (Rluc8).
(§2) G protein dissociation assays were performed according to the original protocols of the TRUPATH BRET² assay[47],[87] but with subtle modifications as previously described[61],[88],[89]. All reagents and cells were obtained from Thermo Fisher Scientific unless indicated otherwise. The coding sequences for the G protein biosensors[47] (Gα12-Rluc8, Gα13-Rluc8, wt Gβ3, and Gγ9-GFP), the wt GPR55, the construct used for cryo-EM (with GFP bearing a G67A mutation to disrupt fluorescence properties[48] for BRET² assays), GPR55 binding pocket mutants (G152^4.56F, G152^4.56W, N171^ECL2Q, N171^ECL2A, T176^5.33A, R253^6.62A), and the wt TBXA2R were codon-optimized for Homo sapiens, gene-synthesized, and sub-cloned into pcDNA^TM3.1(+) between NheI and HindIII restriction sites by GeneArt (Thermo Fisher Scientific). […] Freshly grown cells were washed with Dulbecco’s Balanced Salt Solution (DPBS, cat. #14200075) and detached using trypsin-ethylenediaminetetraacetic acid (trypsin-EDTA) (cat. #25300-062). Then, the cells were reconstituted to 500,000 cells per mL with fresh medium, and 1,000,000 cells were seeded into each well of a 6-well plate. After 3 h incubation at 37 °C and 5% CO2, adherent cells were transfected with 600 ng DNA (1:1:1:1 ratio of plasmid DNA for GPR55, wt Gβ3, Gγ9-GFP, and Gα12-Rluc8 or Gα13-Rluc8). Plasmid DNA was mixed with 1.5 µL Lipofectamine^TM 2000 (cat. #11668027) in Opti-MEM^TM medium (cat. #31985062) and incubated for 20 min. Then, the mixture was added to each well of the 6-well plate following 24 h incubation at 37 °C and 5% CO2. Transfected cells were washed with DPBS, detached using EDTA (Versene, cat. #15040066), and reconstituted into fresh medium at 500,000 cells mL^−1. From this suspension, 50,000 cells were seeded into each well of a white-bottom 96-well plate (Nunc^TM MicroWell^TM 96 wells, cat. #136101) following overnight incubation at 37 °C and 5% CO2. Then, the adherent cells were washed with assay medium [Hank’s balanced salt solution (HBSS, cat. #14065056) plus 20 mM HEPES pH 7.4 (cat. #15630056)] and finally reconstituted into 50 µL of the same medium. […] Methoxy e-Coelenterazine was used as luciferase substrate (Prolume Purple, NanoLight Technology, cat. #369), reconstituted at 1 mM in methanol and diluted to 37.5 µM with assay buffer (7.5 µM final assay concentration). The assay was started by the addition of 20 µL luciferase substrate to each well of the assay plate using a Multidrop^TM Combi reagent dispenser (Thermo Fisher Scientific), followed by 5 min incubation at room temperature. Then, 30 µL of agonist dilutions or DMSO control was added (final DMSO concentration 1.5%), followed by an additional 5 min incubation at room temperature. BRET² measurements were performed with a PHERAstar® FSX microplate reader (BMG LABTECH) using a BRET² filter (donor emission 370–450 nm, acceptor emission 500–530 nm) at the maximum fluorescence gain of 3600. BRET² ratios were calculated by dividing GFP emission signals from Rluc8 emission counts. Buffer-DMSO controls were subtracted from each data point to calculate ΔBRET² ratios.

[2] = biological target: GPR55 mutant N171Q (Gα13) (Homo sapiens, UniProt Q9Y2T6, N171Q); assay: BRET² G protein dissociation assay, GPR55 N171Q with Gα13
Excerpt: as §1, §2

[3] = biological target: GPR55 mutant T176A (Gα13) (Homo sapiens, UniProt Q9Y2T6, T176A); assay: BRET² G protein dissociation assay, GPR55 T176A with Gα13
Excerpt: as §1, §2

wt GPR55 (Gα13) = wt GPR55 (Gα13) (Homo sapiens, UniProt Q9Y2T6); assay: BRET² G protein dissociation assay, wt GPR55 with Gα13; details: for ΔBRET² ratio (Mean): GPR55-wt-G13
Excerpt: as §1, §2

[4] = biological target: GPR55 cryo-EM construct (Gα13) (Homo sapiens, UniProt Q9Y2T6); assay: BRET² G protein dissociation assay, GPR55 cryo-EM construct (GFP G67A) with Gα13; details: for BRET2 response, Mean (plotted, Fig. S4): Cryo-EM-G67A-G13
Excerpt: as §1, §2

SMILES: Cc1cccc(N2CCN(C(=O)c3cc(S(=O)(=O)N(C)C)ccc3N3CCCC3)CC2)c1C [ML184, 3-[[4-(2,3-dimethylphenyl)-1-piperazinyl]carbonyl]-N,N-dimethyl-4-(1-pyrrolidinyl)benzenesulfonamide]
- Mean (plotted) BRET² response, GPR55-R253A-G13 ([1]; Concentration 300 pM): -0.01108
- Mean (plotted) BRET² response, GPR55-R253A-G13 ([1]; Concentration 1e-9 M): -0.01039
- Mean (plotted) BRET² response, GPR55-R253A-G13 ([1]; Concentration 3e-9 M): -0.0289
- Mean (plotted) BRET² response, GPR55-R253A-G13 ([1]; Concentration 1e-8 M): -0.05814
- Mean (plotted) BRET² response, GPR55-R253A-G13 ([1]; Concentration 3e-8 M): -0.08149
- Mean (plotted) BRET² response, GPR55-R253A-G13 ([1]; Concentration 1e-7 M): -0.0987
- Mean (plotted) BRET² response, GPR55-R253A-G13 ([1]; Concentration 3e-7 M): -0.1069
- Mean (plotted) BRET² response, GPR55-R253A-G13 ([1]; Concentration 1e-6 M): -0.1131
- Mean (plotted) BRET² response, GPR55-R253A-G13 ([1]; Concentration 3e-6 M): -0.1166
- Mean (plotted) BRET² response, GPR55-R253A-G13 ([1]; Concentration 1e-5 M): -0.1236
- Mean (plotted) BRET² response, GPR55-R253A-G13 ([1]; Concentration 3e-5 M): -0.1287
- EC50 ([1]; GPR55 R253A, Gα13): 14.5 nM
- increase of potency compared to wt GPR55 ([1]; R253A mutant): slightly increased by a factor of three
- Mean (plotted) BRET² response, GPR55-N171Q-G13 ([2]; Concentration 300 pM): -0.001828
- Mean (plotted) BRET² response, GPR55-N171Q-G13 ([2]; Concentration 1e-9 M): -0.002418
- Mean (plotted) BRET² response, GPR55-N171Q-G13 ([2]; Concentration 3e-9 M): -0.001477
- Mean (plotted) BRET² response, GPR55-N171Q-G13 ([2]; Concentration 1e-8 M): -0.0001092
- Mean (plotted) BRET² response, GPR55-N171Q-G13 ([2]; Concentration 3e-8 M): -0.001125
- Mean (plotted) BRET² response, GPR55-N171Q-G13 ([2]; Concentration 1e-7 M): -0.006817
- Mean (plotted) BRET² response, GPR55-N171Q-G13 ([2]; Concentration 3e-7 M): -0.01585
- Mean (plotted) BRET² response, GPR55-N171Q-G13 ([2]; Concentration 1e-6 M): -0.03451
- Mean (plotted) BRET² response, GPR55-N171Q-G13 ([2]; Concentration 3e-6 M): -0.05647
- Mean (plotted) BRET² response, GPR55-N171Q-G13 ([2]; Concentration 1e-5 M): -0.07313
- Mean (plotted) BRET² response, GPR55-N171Q-G13 ([2]; Concentration 3e-5 M): -0.08032
- EC50 ([2]; GPR55 N171Q, Gα13): 1410 nM
- Emax at 30 µM ([2]; GPR55 N171Q, Gα13, 30 µM ligand, same normalization, read-out: Efficacy ± SEM (%)): 76 ± 2%
- reduction of potency compared to wt GPR55 ([2]; N171Q mutant): 32 fold
- Mean (plotted) BRET² response, GPR55-T176A-G13 ([3]; Concentration 300 pM): 0.001302
- Mean (plotted) BRET² response, GPR55-T176A-G13 ([3]; Concentration 1e-9 M): -0.0007282
- Mean (plotted) BRET² response, GPR55-T176A-G13 ([3]; Concentration 3e-9 M): -0.005903
- Mean (plotted) BRET² response, GPR55-T176A-G13 ([3]; Concentration 1e-8 M): -0.01189
- Mean (plotted) BRET² response, GPR55-T176A-G13 ([3]; Concentration 3e-8 M): -0.02424
- Mean (plotted) BRET² response, GPR55-T176A-G13 ([3]; Concentration 1e-7 M): -0.03886
- Mean (plotted) BRET² response, GPR55-T176A-G13 ([3]; Concentration 3e-7 M): -0.05218
- Mean (plotted) BRET² response, GPR55-T176A-G13 ([3]; Concentration 1e-6 M): -0.06011
- Mean (plotted) BRET² response, GPR55-T176A-G13 ([3]; Concentration 3e-6 M): -0.06604
- Mean (plotted) BRET² response, GPR55-T176A-G13 ([3]; Concentration 1e-5 M): -0.06889
- Mean (plotted) BRET² response, GPR55-T176A-G13 ([3]; Concentration 3e-5 M): -0.07107
- EC50 ([3]; GPR55 T176A, Gα13): 77.6 nM
- Emax at 30 µM ([3]; GPR55 T176A, Gα13, 30 µM ligand, same normalization, read-out: Efficacy ± SEM (%)): 100 ± 1%
- reduction of potency compared to wt GPR55 ([3]; T176A mutant): 2 fold
- ΔBRET² ratio (Mean) (wt GPR55 (Gα13); 3e-10 M): -0.004943
- ΔBRET² ratio (Mean) (wt GPR55 (Gα13); 1e-9 M): -0.002883
- ΔBRET² ratio (Mean) (wt GPR55 (Gα13); 3e-9 M): -0.008889
- ΔBRET² ratio (Mean) (wt GPR55 (Gα13); 1e-8 M): -0.01695
- ΔBRET² ratio (Mean) (wt GPR55 (Gα13); 3e-8 M): -0.02473
- ΔBRET² ratio (Mean) (wt GPR55 (Gα13); 1e-7 M): -0.03149
- ΔBRET² ratio (Mean) (wt GPR55 (Gα13); 3e-7 M): -0.03626
- ΔBRET² ratio (Mean) (wt GPR55 (Gα13); 1e-6 M): -0.04111
- ΔBRET² ratio (Mean) (wt GPR55 (Gα13); 3e-6 M): -0.04451
- ΔBRET² ratio (Mean) (wt GPR55 (Gα13); 1e-5 M): -0.04913
- ΔBRET² ratio (Mean) (wt GPR55 (Gα13); 3e-5 M): -0.04899
- G protein activation at GPR55-transfected cells (in words) (wt GPR55 (Gα13); wt GPR55, Gα13): induced Gα13 activation in a concentration-dependent manner
- Emax at 30 µM (wt GPR55 (Gα13); wt GPR55, Gα13, 30 µM ligand, 100% = wt GPR55 plus G13-biosensor at 30 µM ML184, 0% = mock plus G13-biosensor, read-out: Efficacy ± SEM (%)): 100 ± 2%
- EC50 (wt GPR55 (Gα13); wt GPR55, Gα13, read-out: EC50 (Gα13 activation)): 44.7 nM
- EC50 ([4]; Cryo-EM construct (G67A), Gα13): 18.2 nM
- Emax at 30 µM ([4]; Cryo-EM construct (G67A), Gα13, 30 µM ligand, same normalization, read-out: Efficacy ± SEM (%)): 86 ± 2%
- BRET2 response, Mean (plotted, Fig. S4) ([4]; concentration 300 pM): 0.0007
- BRET2 response, Mean (plotted, Fig. S4) ([4]; concentration 1e-9 M): -0.00467
- BRET2 response, Mean (plotted, Fig. S4) ([4]; concentration 3e-9 M): -0.01143
- BRET2 response, Mean (plotted, Fig. S4) ([4]; concentration 1e-8 M): -0.02458
- BRET2 response, Mean (plotted, Fig. S4) ([4]; concentration 3e-8 M): -0.03698
- BRET2 response, Mean (plotted, Fig. S4) ([4]; concentration 1e-7 M): -0.04541
- BRET2 response, Mean (plotted, Fig. S4) ([4]; concentration 3e-7 M): -0.05211
- BRET2 response, Mean (plotted, Fig. S4) ([4]; concentration 1e-6 M): -0.05461
- BRET2 response, Mean (plotted, Fig. S4) ([4]; concentration 3e-6 M): -0.05649
- BRET2 response, Mean (plotted, Fig. S4) ([4]; concentration 1e-5 M): -0.05972
- BRET2 response, Mean (plotted, Fig. S4) ([4]; concentration 3e-5 M): -0.06146
